Test results as given in patent US9988372B2, “Crystalline form of 5-chloro-N-({(5S)-2-oxo-3-[4-(5,6-dihydro-4H-[1,2,4]triazin-1-yl)phenyl]-1,3-oxazolidin-5-yl}methyl)thiophene-2-carboxamide methanesulfonate and pharmaceutical composition comprising same” (GREEN CROSS CORPORATION, priority 2014, dated 2018).
“Also recorded” adds a separate entry of the source.

Assays:
Type in all cases: physicochemical
[1] = Solubility in methanol solvent; details: in the methanol solvent; methanesulfonate
Method: The solubility of each of Crystalline Forms 1 and 5 of the present invention was measured after being dissolved in the methanol solvent.

[2] = Stability in solvent slurry system (interconversion of crystalline forms, final form identified by DSC); details: for Final form (DSC peak): slurry; for Interconversion of crystalline form while stirred in solvent: stirred in the solvent for 24 hours, various solvents (summary of Table 4)
Method: 1) Measurement of Stability in Solvent Slurry System
In order to determine whether one crystalline form is interconverted into another crystalline form in a stirred solvent, a slurry test was performed in different solvents at room temperature.
First, an automated polyblock reactor was filled with each of the solvents listed in Table 4 below at room temperature (30±5° C.). […] Thereafter, an anti-solvent listed in Table 4 below (n-butanol or IPA) was added into the reactor for 30±15 minutes and stirred for 30±15 minutes until a transparent solution was obtained. The resultant was cooled to a temperature of 0±5° C., stirred for 2-3 hours, and then filtered at 0±5° C. The obtained material was dried at 60±5° C. for 3 to 4 hours in VTD, and then DSC analysis was performed for the obtained sample to identify the final crystalline form.
DSC analysis was performed for the obtained sample to identify the final crystalline form.

[3] = Stability under physical stimulus (multi-milling, manual grinding, humidification; final form identified by DSC); details: methanesulfonate; for Stability under physical stimulus: milling, grinding and humidification (summary of Table 6)
Method: 3) Measurement of Stability Under Physical Stimulus
Multi-milling, manual grinding and humidification test were performed for the crystalline forms of the present invention to confirm their stability under physical stimulus. For multi-milling test, each of Crystalline Forms 1 and 5 was milled at 3,000 rpm by using a prototype multi-mill instrument (Sreenex Machines Pvt. Ltd.). For manual grinding, each of the crystalline forms was gradually ground by using a pestle and mortar. In the humidification test, Crystalline Forms 1 and 5 were stored at 30° C. and 90% RH for 24 hours.
DSC analysis was performed for the crystalline forms obtained from the tests to identify the final crystalline form.

[4] = Interconversion at high temperature (final form identified by DSC); details: for Final form (DSC peak): dried at 80±5° C. in non-vacuum state, then cooled to 30±5° C., methanesulfonate; for Stability at high temperature: summary of Table 5
Method: 2) Measurement of Interconversion at High Temperature
In order to determine the interconversion of crystalline forms at a high temperature, each of Crystalline Forms 1 and 5 was dried at 80±5° C. in non-vacuum state, and then cooled to a temperature of 30±5° C. DSC analysis was performed for the obtained samples to identify the final crystalline form.

[5] = Stability in solvent slurry system (interconversion of crystalline forms, final form identified by DSC); details: Dimethyl acetamide: EA, solvent 3 vol, anti-solvent 20 vol
[6] = Methanol: IPA, solvent 7 vol, anti-solvent 20 vol, methanesulfonate
[7] = Methanol: n-butanol, solvent 7 vol, anti-solvent 20 vol, methanesulfonate
[8] = solvent system Acetonitrile 10 vol, no anti-solvent, methanesulfonate
[9] = solvent system Isopropyl alcohol (IPA) 10 vol, no anti-solvent, methanesulfonate

Row | solubility [1] | Final form (DSC peak) [2, 6] | Final form (DSC peak) [2, 7] | Final form (DSC peak) [2, 8] | Final form (DSC peak) ([2]; solvent system Hexane 10 vol, no anti-solvent) | Final form (DSC peak) [2, 9] | Interconversion of crystalline form while stirred in solvent ([2]; methanesulfonate) | Final form ([3]; Humidification, stored at 30° C. and 90% RH for 24 hours) | Final form ([3]; Manual grinding with pestle and mortar) | Final form ([3]; Multi-milling at 3,000 rpm) | Final form (DSC peak) [4] | Stability at high temperature [4] | Final form (DSC peak) ([2]; solvent system Ethyl acetate (EA) 10 vol, no anti-solvent) | Final form (DSC peak) ([2]; solvent system Heptane 10 vol, no anti-solvent) | Final form (DSC peak) ([2]; solvent system Methyl tert-butyl ether (MTBE) 10 vol, no anti-solvent) | Final form (DSC peak) ([2]; solvent system n-butanol 10 vol, no anti-solvent) | Final form (DSC peak) [5] | Structure (SMILES) | Stability under physical stimulus [3]
1 | 70 mg/mL | Mixed crystalline forms | Crystalline Form 5 (187.7) | Mixed crystalline forms | Mixed crystalline forms | Crystalline Form 5 (187.0) | tends to convert into Crystalline Form 5 | Crystalline Form 1 | Crystalline Form 1 | Crystalline Form 1 | Crystalline Form 1 (178.0) | stable at high temperature |  |  |  |  |  | O=C(NC[C@H]1CN(c2ccc(N3CCNC=N3)cc2)C(=O)O1)c1ccc(Cl)s1 [Crystalline Form 1, 5-chloro-N-({(5S)-2-oxo-3-[4-(5,6-dihydro-4H-[1,2,4]triazin-1-yl)phenyl]-1,3-oxazolidin-5-yl}methyl)thiophene-2-carboxamide methanesulfonate] | stability without change of crystalline forms; also recorded: stable under physical stimulus
2 | 30 mg/mL | Crystalline Form 5 (186.80) | Crystalline Form 5 (186.27) | Crystalline Form 5 (186.88) |  | Crystalline Form 5 (186.33) | maintains the initial form |  |  |  | Crystalline Form 5 (187.0) | stable at high temperature | Crystalline Form 5 (186.48) | Crystalline Form 5 (186.44) | Crystalline Form 5 (186.45) | Crystalline Form 5 (186.76) | Crystalline Form 5 (187.05) | O=C(NC[C@H]1CN(c2ccc(N3CCNC=N3)cc2)C(=O)O1)c1ccc(Cl)s1 [Crystalline Form 5, 5-chloro-N-({(5S)-2-oxo-3-[4-(5,6-dihydro-4H-[1,2,4]triazin-1-yl)phenyl]-1,3-oxazolidin-5-yl}methyl)thiophene-2-carboxamide methanesulfonate] | stability without change of crystalline forms; also recorded: stable under physical stimulus
